According to patent US20150105252A1, “SUBSTITUTED PYRAZOLES AS HERBICIDES” (E I DU PONT DE NEMOURS AND COMPANY, priority 2013, published 2015):

Legend:
pigweed [1] = assay: Test C postemergence; format: in vivo, Amaranthus retroflexus
How it was run: (§1)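 Visual rating, 0–100 scale (0 no effect, 100 complete control), vs untreated controls after 13–15 d greenhouse. Pre: seeds in loam/sand, treated at sowing. Post: plants in peat-based mix, 1- to 4-leaf (2–18 cm). Solvent + surfactant formulation, non-phytotoxic.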

corn [2] = assay: Test C preemergence; format: in vivo, Zea mays; conditions: for Corn plant response rating: preemergence
How it was run: as §1

pigweed [3] = assay: Test A postemergence; format: in vivo, Amaranthus retroflexus
How it was run: (§2)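 After sowing in a sand–loam mix, pots received compound preemergence by directed soil spray, or postemergence once plants reached the one- to two-leaf stage (2–10 cm). Formulation contained surfactant in a non-phytotoxic solvent. Injury was scored visually after ~10 greenhouse days, 0–100 scale.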

velvetleaf = assay: Test A preemergence; format: in vivo, Abutilon theophrasti; conditions: preemergence
How it was run: as §2

rice = assay: Test B flood; format: in vivo, Oryza sativa; conditions: 250 g ai/ha, visual rating on 0 to 100 scale (0 no effect, 100 complete control), 13 to 15 days
How it was run: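 At two leaves, seedlings received the test compound via the paddy water, pots having been flooded 3 cm over the soil surface and kept so. Greenhouse-held for 13 to 15 days, then judged by eye against controls on a scale running 0 (no effect) to 100 (complete control).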

ragweed [4] = assay: Test C preemergence; format: in vivo, Ambrosia elation; conditions: for Ragweed plant response rating: preemergence
How it was run: as §1

wheat = assay: Test A preemergence; format: in vivo, Triticum aestivum; conditions: preemergence
How it was run: as §2

corn [5] = assay: Test A postemergence; format: in vivo, Zea mays
How it was run: as §2

nutsedge, yellow = assay: Test C postemergence; format: in vivo, Cyperus esculentus
How it was run: as §1

ragweed [6] = assay: Test C postemergence; format: in vivo, Ambrosia elation
How it was run: as §1

crabgrass, large = assay: Test A preemergence; format: in vivo, Digitaria sanguinalis; conditions: preemergence
How it was run: as §2

foxtail, giant = assay: Test A preemergence; format: in vivo, Setaria faberii; conditions: preemergence
How it was run: as §2

blackgrass = assay: Test C postemergence; format: in vivo, Alopecurus myosuroides
How it was run: as §1

galium = assay: Test C preemergence; format: in vivo, Galium aparine; conditions: for Galium plant response rating: preemergence
How it was run: as §1

[7] = Postemergence, 31 g ai/ha, visually evaluated after 13 to 15 days
[8] = postemergence, 62 g ai/ha, scale 0 to 100
[9] = postemergence, 250 g ai/ha, scale 0 to 100 (0 no effect, 100 complete control)
[10] = postemergence, 125 g ai/ha, scale 0 to 100, 0 no effect, 100 complete control
[11] = 31 g ai/ha, visual rating, scale 0 to 100 (0 no effect, 100 complete control), 13 to 15 days
[12] = 62 g ai/ha, scale 0 to 100 (0 no effect, 100 complete control), 13 to 15 days
[13] = 125 g ai/ha, scale 0 to 100, 0 is no effect, 100 is complete control
[14] = Postemergence, 500 g ai/ha, visual rating after approx. 10 days, 0 to 100 scale (0 no effect, 100 complete control)
[15] = postemergence, 125 g ai/ha, about 10 days, visual rating on 0 to 100 scale (0 no effect, 100 complete control)
[16] = 125 g ai/ha, visual injury, 0 to 100 scale, approx. 10 days
[17] = 500 g ai/ha, visual injury after approx. 10 days, 0 to 100 scale (0 no effect, 100 complete control)

CCc1cc(C(=O)NCC(F)(F)F)nn1Cc1cc(C(F)(F)F)nn1C [Compound 108, 5-ethyl-1-[[1-methyl-3-(trifluoromethyl)-1H-pyrazole-5-yl]methyl]-N-(2,2,2-trifluoroethyl)-1H-pyrazole-3-carboxamide]
Plant response rating (scale of 0 to 100 where 0 is no effect and 100 is complete control), Pigweed (pigweed [1]; [7]): 40 | Pigweed plant response rating (pigweed [1]; [8]): 45 | Plant response rating, Pigweed (pigweed [1]; [9]): 90 | Plant response rating, Pigweed (pigweed [1]; [10]): 50 | Plant response rating (scale of 0 to 100), Corn (corn [2]; Preemergence, 250 g ai/ha): 95 | Corn plant response rating (corn [2]; [11]): 5 | Corn plant response rating (corn [2]; [12]): 30 | Corn plant response rating (corn [2]; [13]): 95 | Pigweed plant response rating (pigweed [3]; [14]): 100 | Pigweed plant response rating (pigweed [3]; [15]): 90 | Velvetleaf plant response rating (velvetleaf; [16]): 60 | Velvetleaf plant response rating (velvetleaf; [17]): 100 | Plant response rating, Rice (rice): 15 | Plant response rating (scale of 0 to 100), Ragweed (ragweed [4]; Preemergence, 250 g ai/ha): 100 | Ragweed plant response rating (ragweed [4]; [11]): 95 | Ragweed plant response rating (ragweed [4]; [12]): 95 | Ragweed plant response rating (ragweed [4]; [13]): 95 | Wheat plant response rating (wheat; [16]): 10 | Wheat plant response rating (wheat; [17]): 100 | Corn plant response rating (corn [5]; [14]): 100 | Corn plant response rating (corn [5]; [15]): 80 | Plant response rating (scale of 0 to 100 where 0 is no effect and 100 is complete control), Nutsedge, Yellow (nutsedge, yellow; [7]): 0 | Nutsedge, Yellow plant response rating (nutsedge, yellow; [8]): 0 | Plant response rating, Nutsedge, Yellow (nutsedge, yellow; [9]): 25 | Plant response rating, Nutsedge, Yellow (nutsedge, yellow; [10]): 0 | Plant response rating (scale of 0 to 100 where 0 is no effect and 100 is complete control), Ragweed (ragweed [6]; [7]): 10 | Ragweed plant response rating (ragweed [6]; [8]): 50 | Plant response rating, Ragweed (ragweed [6]; [9]): 85 | Plant response rating, Ragweed (ragweed [6]; [10]): 50 | Crabgrass, Large plant response rating (crabgrass, large; [16]): 100 | Crabgrass, Large plant response rating (crabgrass, large; [17]): 100 | Foxtail, Giant plant response rating (foxtail, giant; [16]): 100 | Foxtail, Giant plant response rating (foxtail, giant; [17]): 100 | Plant response rating (scale of 0 to 100 where 0 is no effect and 100 is complete control), Blackgrass (blackgrass; [7]): 0 | Blackgrass plant response rating (blackgrass; [8]): 5 | Plant response rating, Blackgrass (blackgrass; [9]): 30 | Plant response rating, Blackgrass (blackgrass; [10]): 5 | Plant response rating (scale of 0 to 100), Galium (galium; Preemergence, 250 g ai/ha): 100 | Galium plant response rating (galium; [11]): 85 | Galium plant response rating (galium; [12]): 100 | Galium plant response rating (galium; [13]): 100
